The compounds below were run against T1, human GPBAR1 receptor (Homo sapiens, UniProt Q8TDU6) (assay: functional cAMP assay in CHO-dhfr(minus) cells expressing human GPBAR1 receptors). Conditions: CHO-dhfr(minus) cells expressing human GPBAR1, 30 min at 30° C.
T1 construct: expressed in transfected cells
T1 sequence (Q8TDU6 1-330): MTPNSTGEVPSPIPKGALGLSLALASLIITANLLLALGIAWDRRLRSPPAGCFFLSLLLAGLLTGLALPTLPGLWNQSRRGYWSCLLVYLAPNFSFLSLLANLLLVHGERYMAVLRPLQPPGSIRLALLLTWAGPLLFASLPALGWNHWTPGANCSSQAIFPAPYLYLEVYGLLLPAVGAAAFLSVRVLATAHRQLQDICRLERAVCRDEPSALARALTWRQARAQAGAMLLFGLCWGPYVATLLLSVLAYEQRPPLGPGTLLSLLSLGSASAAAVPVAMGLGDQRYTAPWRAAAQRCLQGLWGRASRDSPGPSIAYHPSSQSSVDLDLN
Format: cell-based
Description: The cDNA of the human GPBAR1 receptor (Genbank: NM_170699 with the exception of a silent C:G mutation at position 339 from the start codon) was amplified by polymerase chain reaction (PCR) from human cDNA and inserted into pCineo (Promega) by standard methods (Current Protocols in Molecular Biology, Wiley Press, ed. Ausubel et al.). The final clone was verified by DNA sequence analysis. The plasmid was transfected into CHO cells deficient in dihydrofolate reductase activity (CHO-dhfr-) using Lipofectamine plus (Invitrogen). Clones were isolated in limited dilution conditions and identified by activities in the cAMP assay using lithocholic acid as agonist. A clonal cell line displaying the greatest activity in cAMP increases was selected and identified as giving consistently good responses for up to at least 20 passages.
CHO-dhfr(minus) cells expressing human GPBAR1 receptors are seeded 17-24 hours prior to the experiment 50.000 cells per well in a black 96 well plate with flat clear bottom (Corning Costar #3904) in DMEM (Invitrogen No. 31331), 1×HT supplement, with 10% fetal calf serum and incubated at 5% CO2 and 37° C. in a humidified incubator. The growth medium was exchanged with Krebs Ringer Bicarbonate buffer with 1 mM IBMX and incubated at 30° C. for 30 min. Compounds were added to a final assay volume of 100 μl and incubated for 30 min at 30° C. The assay was stopped by the addition of 50 μl lysis reagent (Tris, NaCl, 1.5% Triton X100, 2.5% NP40, 10% NaN3) and 50 μl detection solutions (20 μM mAb Alexa700-cAMP 1:1, and 48 μM Ruthenium-2-AHA-cAMP) and shaken for 2 h at room temperature. The time-resolved energy transfer is measured by a TRF reader (Evotec Technologies GmbH, Hamburg Germany), equipped with a ND:YAG laser as excitation source. The plate is measured twice with the excitation at 355 nm and at the emission with a delay of 100 ns and a gate of 100 ns, total exposure time 10 s at 730 (bandwidth 30 nm) or 645 nm (bandwidth 75 nm), respectively. The measured signal at 730 nm has to be corrected for the ruthenium background, the direct excitation of Alexa and the buffer control. The FRET signal is calculated as follows: FRET=T730-Alexa730-P(T645-B645) with P=Ru730-B730/Ru645-B645, where T730 is the test well measured at 730 nM, T645 is the test well measured at 645 nm, B730 and B645 are the buffer controls at 730 nm and 645 nm, respectively. cAMP content is determined from the function of a standard curve spanning from 10 μM to 0.13 nM cAMP.
EC50 values were determined using Activity Base analysis (ID Business Solution, Limited). The EC50 values for a wide range of bile acids generated from this assay were in agreement with the values published in the scientific literature. Specificity for GPBAR1 was tested in non-transfected CHO cells in the same assay as above.

SMILES	EC50
Cc1ccccc1[C@H](C/C(=N\O)C1CCC(=O)N(C)C1)c1ccc(S(C)(=O)=O)cc1 (mixture of isomers) [Example 1, 5-((R,E)-1-(Hydroxyimino)-3-(4-(methylsulfonyl)phenyl)-3-o-tolylpropyl)-1-methylpiperidin-2-one]	118 nM
Cc1ccccc1[C@H](C/C(=N\O)C1CCC(=O)N(C)C1)c1ccc(S(C)(=O)=O)cc1 (single isomer, unassigned) [Example 3]	145 nM
Cc1ccccc1[C@H](C/C(=N\O)C1CCC(=O)N(C)C1)c1ccc(S(C)(=O)=O)cc1 (single isomer, unassigned) [Example 4]	29 nM
Cc1ccccc1[C@H](C/C(=N/O)C1CCC(=O)N(C)C1)c1ccc(S(C)(=O)=O)cc1 (stereo partly drawn) [Example 2, 5-((R,Z)-1-(hydroxyimino)-3-(4-(methylsulfonyl)phenyl)-3-o-tolylpropyl)-1-methylpiperidin-2-one]	8670 nM
Cc1ccccc1[C@H](C/C(=N\O)C1CCC(=O)N(C)C1)c1ccc(N2CCC(C(=O)O)CC2)cc1 (stereo partly drawn) [Example 5, Sodium 1-(4-((1R,E)-3-(hydroxyimino)-3-(1-methyl-6-oxopiperidin-3-yl)-1-o-tolylpropyl)phenyl)piperidine-4-carboxylate]	42 nM
Cc1ccccc1[C@H](C/C(=N\O)C1CCC(=O)N(C)C1)c1ccccc1 (stereo partly drawn) [Example 6, 5-((R,E)-1-(Hydroxyimino)-3-phenyl-3-o-tolylpropyl)-1-methylpiperidin-2-one]	51 nM
Cc1ccccc1[C@H](C/C(=N\O)C1CCC(=O)N(C)C1)c1ccc(-c2ccc(C(=O)O)cc2)cc1 (stereo partly drawn) [Example 7, 4′-((1R,E)-3-(Hydroxyimino)-3-(1-methyl-6-oxopiperidin-3-yl)-1-o-tolylpropyl)biphenyl-4-carboxylic acid]	558 nM
CC(=O)N1CCC(/C(CC(c2ccc(Br)cc2)c2ccccc2C)=N/O)CC1 (stereo not drawn) [Example 8, (E)-1-(4-(3-(4-Bromophenyl)-1-(hydroxyimino)-3-o-tolylpropyl)piperidin-1-yl)ethanone]	8270 nM
Cc1ccccc1C(C/C(=N\O)C1CCOCC1)c1ccc(Br)cc1 (stereo not drawn) [Example 9, (E)-3-(4-Bromophenyl)-1-(tetrahydro-2H-pyran-4-yl)-3-o-tolylpropan-1-one oxime]	118 nM
CS(=O)(=O)c1ccc(C(C/C(=N\O)C2CCOCC2)c2ccccc2)cc1 (stereo not drawn) [Example 10, (E)-3-(4-(Methylsulfonyl)phenyl)-3-phenyl-1-(tetrahydro-2H-pyran-4-yl)propan-1-one oxime]	799 nM
Cc1ccccc1C(C/C(=N\O)C1CCSCC1)c1ccc(Br)cc1 (stereo not drawn) [Example 11, (E)-3-(4-Bromophenyl)-1-(tetrahydro-2H-thiopyran-4-yl)-3-o-tolylpropan-1-one oxime]	9950 nM
Cc1ccccc1C(C/C(=N\O)C1CCS(=O)(=O)CC1)c1ccc(Br)cc1 (stereo not drawn) [Example 12, 3-(4-Bromo-phenyl)-1-(1,1-dioxo-hexahydro-thiopyran-4-yl)-3-o-tolyl-propan-1-one oxime]	9730 nM
Cc1ccccc1C(C/C(=N\O)[C@H]1CC[C@H](O)CC1)c1ccc(Br)cc1 (stereo partly drawn) [Example 13, (E)-3-(4-Bromophenyl)-1-(trans-4-hydroxycyclohexyl)-3-o-tolylpropan-1-one oxime]	2000 nM
Cc1ccccc1C(C/C(=N\O)C1CCC(=O)CC1)c1ccc(Br)cc1 (stereo not drawn) [Example 14, (E)-4-(3-(4-bromophenyl)-1-(hydroxyimino)-3-o-tolylpropyl)cyclohexanone]	601 nM
Cc1ccccc1C(C/C(=N\O)C1CCC(O)CC1)c1ccc(S(C)(=O)=O)cc1 (stereo not drawn) [Example 15, (E)-1-(4-Hydroxycyclohexyl)-3-(4-(methylsulfonyl)phenyl)-3-o-tolylpropan-1-one oxime]	680 nM
Cc1ccccc1C(C/C(=N/O)C1CCC(O)CC1)c1ccc(S(C)(=O)=O)cc1 (stereo not drawn) [Example 16, (Z)-1-(4-hydroxycyclohexyl)-3-(4-(methylsulfonyl)phenyl)-3-o-tolylpropan-1-one oxime]	7720 nM
Cc1ccccc1C(C/C(=N\O)[C@H]1CC[C@](C)(O)CC1)c1ccc(S(C)(=O)=O)cc1 (stereo partly drawn) [Example 17, (E)-1-((1r,4r)-4-Hydroxy-4-methylcyclohexyl)-3-(4-(methylsulfonyl)phenyl)-3-o-tolylpropan-1-one oxime]	9810 nM
Cc1ccccc1C(C/C(=N\O)C1CC(O)C1)c1ccc(Br)cc1 (stereo not drawn) [Example 18, (E)-3-(4-Bromophenyl)-1-(3-hydroxycyclobutyl)-3-o-tolylpropan-1-one oxime]	3850 nM

Reference: patent US20130109718A1, “1-CYCLOALKYL- OR 1-HETEROCYCLYL-HYDROXYIMINO-3-PHENYL-PROPANES” (Hoffmann-La Roche Inc., priority 2011, published 2013)
